Calls of active or inactive are those of the source. No cut-off for these calls is given here. *1 amine or outer side, *2 acyl side, *3 side chain or, on linkers, in order; H or OH if unused. Where a SMILES comes first, the peptide text is derived from it. Bridges are numbered along the chain shown (N, C = ends). Roman numbers before positions name the chains, in order. [ ]: non-standard residue; d: D form. Piperazine(1,4-diyl) = C1CN([*:2])CCN1[*:1]; Dmt = Cc1cc(O)cc(C)c1C[C@H](N)C(=O)O; Cystamine = C(CSSCCN[*:2])N[*:1]
Key:
[1] = biological target: T1, Kappa-type opioid receptor (Homo sapiens, UniProt P41145); assay: Antagonist activity at KOR (unknown origin) expressed in HEK cells assessed as cAMP accumulation by split luciferase assay; type: functional, cell-based
T1 sequence (P41145 whole entry): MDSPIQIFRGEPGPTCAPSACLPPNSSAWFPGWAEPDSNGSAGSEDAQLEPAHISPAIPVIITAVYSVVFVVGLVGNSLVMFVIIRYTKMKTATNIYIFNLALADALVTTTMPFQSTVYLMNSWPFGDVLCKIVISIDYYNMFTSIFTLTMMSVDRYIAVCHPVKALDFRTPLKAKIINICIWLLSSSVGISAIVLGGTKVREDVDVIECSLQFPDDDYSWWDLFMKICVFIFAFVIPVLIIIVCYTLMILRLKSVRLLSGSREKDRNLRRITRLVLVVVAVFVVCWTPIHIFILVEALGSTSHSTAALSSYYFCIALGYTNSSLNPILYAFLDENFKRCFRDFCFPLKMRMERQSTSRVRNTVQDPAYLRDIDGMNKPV

[2] = biological target: T2, Delta-type opioid receptor (Homo sapiens, UniProt P41143); assay: Antagonist activity at DOR (unknown origin) expressed in HEK cells assessed as cAMP accumulation by split luciferase assay; type: functional, cell-based
T2 sequence (P41143 whole entry): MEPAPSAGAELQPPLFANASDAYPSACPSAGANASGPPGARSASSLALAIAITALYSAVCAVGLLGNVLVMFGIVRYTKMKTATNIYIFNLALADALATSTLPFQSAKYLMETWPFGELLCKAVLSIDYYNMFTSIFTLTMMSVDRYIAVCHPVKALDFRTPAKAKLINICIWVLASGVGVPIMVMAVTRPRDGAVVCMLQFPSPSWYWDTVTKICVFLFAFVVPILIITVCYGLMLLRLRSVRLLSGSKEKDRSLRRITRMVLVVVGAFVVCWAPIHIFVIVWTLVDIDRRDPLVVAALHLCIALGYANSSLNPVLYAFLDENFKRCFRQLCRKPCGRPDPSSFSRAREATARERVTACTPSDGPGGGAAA

Mu-type opioid receptor [3] = biological target: T3, Mu-type opioid receptor (Homo sapiens, UniProt P35372); assay: Antagonist activity at MOR (unknown origin) expressed in HEK cells assessed as cAMP accumulation by split luciferase assay; type: functional, cell-based
T3 sequence (P35372 whole entry): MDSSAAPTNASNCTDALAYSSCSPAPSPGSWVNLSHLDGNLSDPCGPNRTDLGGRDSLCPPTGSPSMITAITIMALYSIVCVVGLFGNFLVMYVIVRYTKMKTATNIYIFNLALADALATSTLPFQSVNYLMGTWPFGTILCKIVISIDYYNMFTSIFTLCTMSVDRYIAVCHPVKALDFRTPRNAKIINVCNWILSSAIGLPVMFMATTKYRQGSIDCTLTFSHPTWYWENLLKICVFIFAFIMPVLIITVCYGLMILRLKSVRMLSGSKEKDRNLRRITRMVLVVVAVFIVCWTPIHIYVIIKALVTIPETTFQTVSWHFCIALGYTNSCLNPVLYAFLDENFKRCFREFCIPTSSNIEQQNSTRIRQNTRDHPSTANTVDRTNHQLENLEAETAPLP

Mu-type opioid receptor [4] = biological target: T3, Mu-type opioid receptor; assay: Agonist activity at MOR (unknown origin) expressed in HEK cells assessed as reduction in cAMP accumulation by split luciferase assay relative to DAMGO; type: functional, cell-based
[5] = biological target: T2, Delta-type opioid receptor; assay: Agonist activity at DOR (unknown origin) expressed in HEK cells assessed as reduction in cAMP accumulation by split luciferase assay relative to DADLE; type: functional, cell-based
[6] = biological target: T1, Kappa-type opioid receptor; assay: Agonist activity at KOR (unknown origin) expressed in HEK cells assessed as reduction in cAMP accumulation by split luciferase assay relative to salvinorin A; type: functional, cell-based
Mu-type opioid receptor [7] = biological target: T3, Mu-type opioid receptor; assay: Displacement of [3H]DAMGO from MOR (unknown origin) expressed in HEK cells; type: cell-based
[8] = biological target: T2, Delta-type opioid receptor; assay: Displacement of [3H]DADLE from DOR (unknown origin) expressed in HEK cells; type: cell-based
[9] = biological target: T1, Kappa-type opioid receptor; assay: Displacement of [3H]U69593 from KOR (unknown origin) expressed in HEK cells; type: cell-based
Mu-type opioid receptor [10] = biological target: T3, Mu-type opioid receptor; assay: Agonist activity at MOR (unknown origin) expressed in HEK cells assessed as reduction in cAMP accumulation by split luciferase assay; type: functional, cell-based
[11] = biological target: T2, Delta-type opioid receptor; assay: Agonist activity at DOR (unknown origin) expressed in HEK cells assessed as reduction in cAMP accumulation by split luciferase assay; type: functional, cell-based
[12] = biological target: T1, Kappa-type opioid receptor; assay: Agonist activity at KOR (unknown origin) expressed in HEK cells assessed as reduction in cAMP accumulation by split luciferase assay; type: functional, cell-based
[13] = biological target: T1, Kappa-type opioid receptor; assay: Binding affinity to KOR (unknown origin)

Question: How did the Activity [1] turn out when `CC1(C)SSC(C)(C)[C@H](NC(=O)[C@@H](N)Cc2ccc(O)cc2)C(=O)NCC(=O)N[C@@H](Cc2ccccc2)C(=O)N2CCN(CC2)C(=O)[C@H](Cc2ccccc2)NC(=O)CNC(=O)[C@H]1NC(=O)[C@@H](N)Cc1ccc(O)cc1` (HELM PEPTIDE1{Y.[Pen].G.F}|PEPTIDE2{Y.[Pen].G.F}|CHEM1{[C1CN([*:2])CCN1[*:1]]}$PEPTIDE1,PEPTIDE2,2:R3-2:R3|PEPTIDE1,CHEM1,4:R2-1:R1|PEPTIDE2,CHEM1,4:R2-1:R2$$$V2.0) was run?
Answer: Its Activity is “inactive”.

Question: And the Activity [2]?
Answer: The Activity was “inactive”.

Question: And the Activity (Mu-type opioid receptor [3])?
Answer: The Activity was “inactive”.

Question: What about the Emax (Mu-type opioid receptor [4]) of the same compound?
Answer: Its Emax is 86%.

Question: And the Emax [5]?
Answer: The Emax was 206%.

Question: What about the Emax [6] of the same compound?
Answer: The Emax was 62%.

Question: Which results are given for `N[C@@H](Cc1ccc(O)cc1)C(=O)N[C@@H]1CSSC[C@@H](NC(=O)[C@@H](N)Cc2ccc(O)cc2)C(=O)NCC(=O)N[C@@H](Cc2ccccc2)C(=O)N2CCN(CC2)C(=O)[C@H](Cc2ccccc2)NC(=O)CNC1=O` (HELM PEPTIDE1{Y.[dC].G.F}|PEPTIDE2{Y.[dC].G.F}|CHEM1{[C1CN([*:2])CCN1[*:1]]}$PEPTIDE1,PEPTIDE2,2:R3-2:R3|PEPTIDE1,CHEM1,4:R2-1:R1|PEPTIDE2,CHEM1,4:R2-1:R2$$$V2.0)?
Answer: Activity [1]: inactive; Activity [2]: inactive; Activity (Mu-type opioid receptor [3]): inactive; Ki (Mu-type opioid receptor [7]): 8.9 nM; Ki [8]: 27 nM; Ki [9]: 19 nM; EC50 (Mu-type opioid receptor [10]): 513 nM; EC50 ([11]; read-out: EC50): 245 nM; EC50 [12]: 339 nM; Emax (Mu-type opioid receptor [4]): 54%; Emax [5]: 77%; Emax [6]: 92%

Question: What does the source list for `Cc1cc(O)cc(C)c1C[C@H](N)C(=O)N[C@@H]1CSSC[C@@H](NC(=O)[C@@H](N)Cc2c(C)cc(O)cc2C)C(=O)NCC(=O)N[C@@H](Cc2ccccc2)C(=O)N2CCN(CC2)C(=O)[C@H](Cc2ccccc2)NC(=O)CNC1=O` (I: H-[Dmt][dC]GF / II: H-[Dmt][dC]GF; disulfide I:2-II:2; linker I:C-II:C via Piperazine(1,4-diyl))?
Answer: Activity [1]: inactive; Activity [2]: inactive; Activity (Mu-type opioid receptor [3]): inactive; Ki (Mu-type opioid receptor [7]): 2.5 nM; Ki [8]: 2 nM; Ki [9]: 4.9 nM; EC50 (Mu-type opioid receptor [10]): 112 nM; EC50 ([11]; read-out: EC50): 117 nM; EC50 ([11]; read-out: pEC50 (converted)): 11.7 nM; EC50 [12]: 63.1 nM; Emax (Mu-type opioid receptor [4]): 58%; Emax [5]: 90%; Emax [6]: 82%

Question: Which Activity [1] does the source give for `N[C@@H](Cc1ccc(O)cc1)C(=O)N[C@@H]1CSSC[C@@H](NC(=O)[C@@H](N)Cc2ccc(O)cc2)C(=O)NCC(=O)N[C@@H](Cc2ccccc2)C(=O)NCCSSCCNC(=O)[C@H](Cc2ccccc2)NC(=O)CNC1=O` (HELM PEPTIDE1{Y.[dC].G.F}|PEPTIDE2{Y.[dC].G.F}|CHEM1{[C(CSSCCN[*:2])N[*:1]]}$PEPTIDE1,PEPTIDE2,2:R3-2:R3|PEPTIDE1,CHEM1,4:R2-1:R1|PEPTIDE2,CHEM1,4:R2-1:R2$$$V2.0) here?
Answer: The Activity was “inactive”.

Question: What about the Activity [2] of the same compound?
Answer: Its Activity is “inactive”.

Question: And the Activity (Mu-type opioid receptor [3])?
Answer: The Activity was “inactive”.

Question: And the Ki (Mu-type opioid receptor [7])?
Answer: Its Ki is 2.4 nM.

Question: What about the Ki [8] of the same compound?
Answer: Its Ki is 4.1 nM.

Question: And the Ki [9]?
Answer: The Ki was 18 nM.

Question: And the EC50 (Mu-type opioid receptor [10])?
Answer: Its EC50 is 87.1 nM.

Question: What about the EC50 ([11]; read-out: EC50) of the same compound?
Answer: The EC50 was 26.9 nM.

Question: What about the EC50 [12] of the same compound?
Answer: Its EC50 is 135 nM.

Question: What about the Emax (Mu-type opioid receptor [4]) of the same compound?
Answer: Its Emax is 90%.

Question: And the Emax [5]?
Answer: Its Emax is 91%.

Question: What about the Emax [6] of the same compound?
Answer: Its Emax is 99%.

Question: With `Cc1cc(O)cc(C)c1C[C@H](N)C(=O)N[C@@H]1CSSC[C@@H](NC(=O)[C@@H](N)Cc2c(C)cc(O)cc2C)C(=O)NCC(=O)N[C@@H](Cc2ccccc2)C(=O)NCCSSCCNC(=O)[C@H](Cc2ccccc2)NC(=O)CNC1=O` (I: H-[Dmt][dC]GF / II: H-[Dmt][dC]GF; disulfide I:2-II:2; linker I:C-II:C via Cystamine) as the compound, how does the Activity [1] read?
Answer: Its Activity is “inactive”.

Question: What about the Activity [2] of the same compound?
Answer: Its Activity is “inactive”.

Question: And the Activity (Mu-type opioid receptor [3])?
Answer: The Activity was “inactive”.

Question: And the Ki (Mu-type opioid receptor [7])?
Answer: The Ki was 0.27 nM.

Question: What about the Ki [8] of the same compound?
Answer: Its Ki is 0.46 nM.

Question: And the Ki [9]?
Answer: Its Ki is 0.87 nM.

Question: What about the EC50 (Mu-type opioid receptor [10]) of the same compound?
Answer: The EC50 was 3.47 nM.

Question: And the EC50 ([11]; read-out: EC50)?
Answer: Its EC50 is 1.45 nM.

Question: And the EC50 [12]?
Answer: Its EC50 is 13.5 nM.

Question: And the Emax (Mu-type opioid receptor [4])?
Answer: The Emax was 119%.

Question: What about the Emax [5] of the same compound?
Answer: Its Emax is 106%.

Question: What about the Emax [6] of the same compound?
Answer: The Emax was 98%.

Question: For `C[C@@H](NC(=O)[C@@H](N)Cc1ccc(O)cc1)C(=O)NCC(=O)N[C@@H](Cc1ccccc1)C(=O)NNC(=O)[C@H](Cc1ccccc1)NC(=O)CNC(=O)[C@@H](C)NC(=O)[C@@H](N)Cc1ccc(O)cc1` [BIPHALIN], which Ki [13] is on record?
Answer: The Ki was 270 nM.

Reference: ChEMBL document CHEMBL4118237 (Bioorg Med Chem, 2018)
